{
  "source": "ChEMBL document CHEMBL5584210",
  "about": "“Design, synthesis and antitubercular assessment of 1, 2, 3-triazole incorporated thiazolylcarboxylate derivatives” (Bioorg Med Chem Lett, 2024)",
  "key": {"[1]": {"tested_on": "Mycobacterium tuberculosis", "experiment": "Antimycobacterial activity against Mycobacterium tuberculosis H37Rv by alamar blue assay", "type": "functional"}, "[2]": {"experiment": "Cytotoxicity against mouse RAW264.7 cells assessed as inhibition of cell growth at 25 ug/ml incubated for 48 hrs by MTT assay relative to control", "type": "toxicity, cell-based", "conditions": "at 25 µg/mL"}},
  "data": [
    {"smiles": "CCc1cc(-c2nc(C)c(C(=O)OCc3cn(-c4cccc(C)c4)nn3)s2)ccn1", "values": [
      {"measurement": "MIC", "setting": "[1]", "result": 6.25, "unit": "µg/mL"},
      {"measurement": "inhibition at 48 h, 25 ug/ml", "setting": "[2]", "result": 30.1, "unit": "%"}
    ]},
    {"smiles": "CCc1cc(-c2nc(C)c(C(=O)OCc3cn(-c4ccc(C)c([N+](=O)[O-])c4)nn3)s2)ccn1", "values": [
      {"measurement": "MIC", "setting": "[1]", "result": 12.5, "unit": "µg/mL"}
    ]},
    {"smiles": "CCc1cc(-c2nc(C)c(C(=O)OCc3cn(-c4ccccc4Cl)nn3)s2)ccn1", "values": [
      {"measurement": "MIC", "setting": "[1]", "result": 25, "unit": "µg/mL"}
    ]},
    {"smiles": "CCc1cc(-c2nc(C)c(C(=O)OCc3cn(-c4ccc(Br)cc4)nn3)s2)ccn1", "values": [
      {"measurement": "MIC", "setting": "[1]", "result": "> 25", "unit": "µg/mL"}
    ]},
    {"smiles": "CCc1cc(-c2nc(C)c(C(=O)OCc3cn(-c4ccccc4OC)nn3)s2)ccn1", "values": [
      {"measurement": "MIC", "setting": "[1]", "result": "> 25", "unit": "µg/mL"}
    ]},
    {"smiles": "CCCc1cc(-c2nc(C)c(C(=O)OCc3cn(-c4ccc(CC)cc4)nn3)s2)ccn1", "values": [
      {"measurement": "MIC", "setting": "[1]", "result": 1.56, "unit": "µg/mL"},
      {"measurement": "inhibition at 48 h, 25 ug/ml", "setting": "[2]", "result": 27.2, "unit": "%"}
    ]},
    {"smiles": "CCc1cc(-c2nc(C)c(C(=O)OCc3cn(-c4cccc([N+](=O)[O-])c4)nn3)s2)ccn1", "values": [
      {"measurement": "MIC", "setting": "[1]", "result": 12.5, "unit": "µg/mL"}
    ]},
    {"smiles": "CCCc1cc(-c2nc(C)c(C(=O)OCc3cn(-c4ccc(C)cc4)nn3)s2)ccn1", "values": [
      {"measurement": "MIC", "setting": "[1]", "result": "> 25", "unit": "µg/mL"}
    ]},
    {"smiles": "CCc1ccc(-n2cc(COC(=O)c3sc(-c4ccnc(CC)c4)nc3C)nn2)cc1", "values": [
      {"measurement": "MIC", "setting": "[1]", "result": 3.12, "unit": "µg/mL"},
      {"measurement": "inhibition at 48 h, 25 ug/ml", "setting": "[2]", "result": 29.2, "unit": "%"}
    ]},
    {"smiles": "CCCc1cc(-c2nc(C)c(C(=O)OCc3cn(-c4cccc(Cl)c4)nn3)s2)ccn1", "values": [
      {"measurement": "MIC", "setting": "[1]", "result": 12.5, "unit": "µg/mL"}
    ]},
    {"smiles": "CCc1cc(-c2nc(C)c(C(=O)OCc3cn(-c4c(C)cc(C)cc4C)nn3)s2)ccn1", "values": [
      {"measurement": "MIC", "setting": "[1]", "result": 25, "unit": "µg/mL"}
    ]},
    {"smiles": "CCCc1cc(-c2nc(C)c(C(=O)OCc3cn(-c4cccc(OC)c4)nn3)s2)ccn1", "values": [
      {"measurement": "MIC", "setting": "[1]", "result": 6.25, "unit": "µg/mL"},
      {"measurement": "inhibition at 48 h, 25 ug/ml", "setting": "[2]", "result": 25.7, "unit": "%"}
    ]},
    {"smiles": "CCc1cc(-c2nc(C)c(C(=O)OCc3cn(-c4ccc(OC)cc4)nn3)s2)ccn1", "values": [
      {"measurement": "MIC", "setting": "[1]", "result": 12.5, "unit": "µg/mL"}
    ]},
    {"smiles": "CCc1cc(-c2nc(C)c(C(=O)OCc3cn(-c4ccc(C)cc4)nn3)s2)ccn1", "values": [
      {"measurement": "MIC", "setting": "[1]", "result": 25, "unit": "µg/mL"}
    ]},
    {"smiles": "CCCc1cc(-c2nc(C)c(C(=O)OCc3cn(-c4cccc([N+](=O)[O-])c4)nn3)s2)ccn1", "values": [
      {"measurement": "MIC", "setting": "[1]", "result": "> 25", "unit": "µg/mL"}
    ]},
    {"smiles": "CCCc1cc(-c2nc(C)c(C(=O)OCc3cn(-c4ccccc4)nn3)s2)ccn1", "values": [
      {"measurement": "MIC", "setting": "[1]", "result": 12.5, "unit": "µg/mL"}
    ]},
    {"smiles": "CCCc1cc(-c2nc(C)c(C(=O)OCc3cn(-c4ccc(Br)cc4)nn3)s2)ccn1", "values": [
      {"measurement": "MIC", "setting": "[1]", "result": 25, "unit": "µg/mL"}
    ]},
    {"smiles": "CCc1cc(-c2nc(C)c(C(=O)OCc3cn(-c4cccc(OC)c4)nn3)s2)ccn1", "values": [
      {"measurement": "MIC", "setting": "[1]", "result": 6.25, "unit": "µg/mL"},
      {"measurement": "inhibition at 48 h, 25 ug/ml", "setting": "[2]", "result": 26, "unit": "%"}
    ]},
    {"smiles": "CCc1cc(-c2nc(C)c(C(=O)OCc3cn(-c4cccc(Cl)c4)nn3)s2)ccn1", "values": [
      {"measurement": "MIC", "setting": "[1]", "result": 25, "unit": "µg/mL"}
    ]},
    {"smiles": "CCc1cc(-c2nc(C)c(C(=O)OCc3cn(-c4ccc(C)cc4C)nn3)s2)ccn1", "values": [
      {"measurement": "MIC", "setting": "[1]", "result": 6.25, "unit": "µg/mL"},
      {"measurement": "inhibition at 48 h, 25 ug/ml", "setting": "[2]", "result": 21.9, "unit": "%"}
    ]},
    {"smiles": "CCc1cc(-c2nc(C)c(C(=O)OCc3cn(-c4ccccc4)nn3)s2)ccn1", "values": [
      {"measurement": "MIC", "setting": "[1]", "result": 25, "unit": "µg/mL"}
    ]},
    {"smiles": "CCCc1cc(-c2nc(C)c(C(=O)OCc3cn(-c4ccc(Cl)cc4)nn3)s2)ccn1", "values": [
      {"measurement": "MIC", "setting": "[1]", "result": "> 25", "unit": "µg/mL"}
    ]},
    {"smiles": "CCc1cc(-c2nc(C)c(C(=O)OCc3cn(-c4ccccc4C)nn3)s2)ccn1", "values": [
      {"measurement": "MIC", "setting": "[1]", "result": 12.5, "unit": "µg/mL"}
    ]},
    {"smiles": "CCCc1cc(-c2nc(C)c(C(=O)OCc3cn(-c4ccc(OC)cc4)nn3)s2)ccn1", "values": [
      {"measurement": "MIC", "setting": "[1]", "result": "> 25", "unit": "µg/mL"}
    ]},
    {"smiles": "CCc1cc(-c2nc(C)c(C(=O)OCc3cn(-c4ccc(Cl)cc4)nn3)s2)ccn1", "values": [
      {"measurement": "MIC", "setting": "[1]", "result": 25, "unit": "µg/mL"}
    ]},
    {"smiles": "CCc1cc(-c2nc(C)c(C(=O)OCc3cn(-c4ccccc4F)nn3)s2)ccn1", "values": [
      {"measurement": "MIC", "setting": "[1]", "result": 12.5, "unit": "µg/mL"}
    ]},
    {"smiles": "CCCc1cc(-c2nc(C)c(C(=O)OCc3cn(-c4ccccc4F)nn3)s2)ccn1", "values": [
      {"measurement": "MIC", "setting": "[1]", "result": 25, "unit": "µg/mL"}
    ]},
    {"smiles": "O=C(O)c1cn(C2CC2)c2cc(N3CCNCC3)c(F)cc2c1=O", "note": "[CIPROFLOXACIN]", "values": [
      {"measurement": "MIC", "setting": "[1]", "result": 1.56, "unit": "µg/mL"}
    ]},
    {"smiles": "CC[C@@H](CO)NCCN[C@@H](CC)CO", "note": "[ETHAMBUTOL]", "values": [
      {"measurement": "MIC", "setting": "[1]", "result": 3.12, "unit": "µg/mL"}
    ]}
  ]
}
